# Measurements from patent US20250092056A1, “URACIL DERIVATIVES HAVING VIRUS REPLICATION INHIBITORY ACTIVITY AND PHARMACEUTICAL COMPOSITION COMPRISING THE SAME” (Shionogi & Co., Ltd., priority 2022, published 2025).
# System: SARS-CoV-2
# Assay: Cytopathic effect (CPE) suppression effect confirmation test using HEK293T/ACE2-TMPRSS2 cells
# Format: cell-based
# Conditions: Severe acute respiratory syndrome coronavirus 2, HEK-293T; 50% SARS-CoV-2 infected cell death inhibitory concentration; HEK293T/ACE2-TMPRSS2 cells; read-out: EC50
row,SMILES,EC50 [nM]
1,Cc1cncc(-n2c(=O)c(-c3cc(F)c(F)c(F)c3)c(CCC(C)(C)O)n(CC#N)c2=O)c1 [Compound I-213],< 100
2,N#CCn1c(N2CC3(C2)CC(F)(F)C3)c(-c2ccc(F)c(Cl)c2)c(=O)n(-c2cc(OCC(F)F)cnn2)c1=O [Compound I-217],< 100
3,"C[C@@H](C#N)n1c(N2CCC(F)(F)CC2)c(-c2ccc(F)c(Cl)c2)c(=O)n(-c2cncc(Cl)c2)c1=O (single isomer, unassigned) [Compound I-386]",< 100
4,N#CCn1c(N2CC3(C=C(F)C3)C2)c(-c2ccc(F)c(Cl)c2)c(=O)n(-c2cncc(Cl)c2)c1=O [Compound I-362],< 100
5,N#CCn1c(N2CC(F)(c3ncccn3)C2)c(-c2ccc(F)c(Cl)c2)c(=O)n(-c2cncc(Cl)c2)c1=O [Compound I-287],< 100
6,N#CCn1c(N2CC3(CCOC3)C2)c(CCCC(F)(F)F)c(=O)n(-c2cncc(Cl)c2)c1=O [Compound I-365],100 to 1000
7,N#CCn1c(N2CC3(CCOC3)C2)c(C2=CCCCC2)c(=O)n(-c2cncc(Cl)c2)c1=O [Compound I-264],< 100
8,"C[C@](O)(CCc1c(-c2ccc(F)c(Cl)c2)c(=O)n(-c2cncc(C#N)c2)c(=O)n1CC#N)C(F)F (single isomer, unassigned) [Compound I-429]",< 100
9,CC(C)N1CCN(c2c(-c3ccc(F)c(Cl)c3)c(=O)n(-c3cncc(Cl)c3)c(=O)n2CC#N)CC1=O [Compound I-223],< 100
10,Cc1cncc(-n2c(=O)c(-c3ccc(F)c(Cl)c3)c(NS(=O)(=O)c3ccccc3)n(CC#N)c2=O)c1 [Compound I-276],< 100
11,N#CCn1c(CC2(O)CCC2)c(-c2ccc(F)c(Cl)c2)c(=O)n(-c2cncc(Cl)c2)c1=O [Compound I-407],< 100
12,N#CCn1c(-c2ccc(CO)nc2)c(-c2ccc(F)c(Cl)c2)c(=O)n(-c2cncc(Cl)c2)c1=O [Compound I-380],< 100
13,COCc1c(-c2ccc(F)c(Cl)c2)c(=O)n(-c2cncc(Cl)c2)c(=O)n1CC#N [Compound I-435],< 100
14,N#CCn1c(N2CC3(C2)CC(F)(F)C3)c(-c2ccc(F)c(Cl)c2)c(=O)n(-c2cncc(C#N)c2)c1=O [Compound I-247],< 100
15,N#CCn1c(N2CC(O)(c3cnccn3)C2)c(-c2ccc(F)c(Cl)c2)c(=O)n(-c2cncc(Cl)c2)c1=O [Compound I-237],< 100
16,N#CCn1c(N2CC(OC(F)F)C2)c(-c2ccc(F)c(Cl)c2)c(=O)n(-c2cncc(C(F)F)n2)c1=O [Compound I-358],< 100
17,Cn1ccc(-c2c(-c3ccc(F)c(Cl)c3)c(=O)n(-c3cncc(Cl)c3)c(=O)n2CC#N)n1 [Compound I-302],< 100
18,N#CCn1c(N2CC(OC(F)F)C2)c(-c2ccc(F)c(Cl)c2)c(=O)n(-c2cncc(C(F)(F)F)n2)c1=O [Compound I-335],< 100
19,N#CCn1c(N2CC(CO)C2)c(-c2ccc(F)c(Cl)c2)c(=O)n(-c2cncc(OCF)n2)c1=O [Compound I-409],< 100
20,N#CCn1c(N2CC3(C2)CC(F)(F)C3)c(-c2ccc(F)c(C#N)c2)c(=O)n(-c2cncc(Cl)c2)c1=O [Compound I-372],< 100
21,CC1(O)CN(c2c(-c3ccc(F)c(Cl)c3)c(=O)n(-c3cncc(OCF)n3)c(=O)n2CC#N)C1 [Compound I-355],< 100
22,N#CCn1c(-c2ccc(F)nc2)c(-c2ccc(F)c(Cl)c2)c(=O)n(-c2cncc(Cl)c2)c1=O [Compound I-385],< 100
23,N#CCn1c(N2CC(O)(C(F)(F)F)C2)c(-c2ccc(F)c(F)c2)c(=O)n(-c2cncc(Cl)c2)c1=O [Compound I-317],< 100
24,N#CCn1c(N2CC(OC(F)F)C2)c(-c2ccc(F)c(Cl)c2)c(=O)n(-c2cncc(C#N)c2)c1=O [Compound I-437],< 100
25,N#CCn1c(N2CC(O)(c3ncccn3)C2)c(-c2ccc(F)c(Cl)c2)c(=O)n(-c2cncc(C(F)F)n2)c1=O [Compound I-336],< 100
26,Cc1cnnc(-n2c(=O)c(-c3ccc(F)c(Cl)c3)c(N3CC4(C3)CC(F)(F)C4)n(CC#N)c2=O)c1 [Compound I-228],< 100

# Molecular target: Recombinant SARS-CoV-2 3CL Protease (Severe acute respiratory syndrome coronavirus 2 (2019-nCoV) (SARS-CoV-2), UniProt P0DTD1)
# Assay: biochemical
# Format: biochemical
# Conditions: 50% SARS-CoV-2 3CL protease inhibitory concentration; read-out: IC50
row,SMILES,IC50 [nM]
1,Cc1cncc(-n2c(=O)c(-c3cc(F)c(F)c(F)c3)c(CCC(C)(C)O)n(CC#N)c2=O)c1 [Compound I-213],< 10
2,N#CCn1c(N2CC3(C2)CC(F)(F)C3)c(-c2ccc(F)c(Cl)c2)c(=O)n(-c2cc(OCC(F)F)cnn2)c1=O [Compound I-217],< 10
3,"C[C@@H](C#N)n1c(N2CCC(F)(F)CC2)c(-c2ccc(F)c(Cl)c2)c(=O)n(-c2cncc(Cl)c2)c1=O (single isomer, unassigned) [Compound I-386]",< 10
4,N#CCn1c(N2CC3(C=C(F)C3)C2)c(-c2ccc(F)c(Cl)c2)c(=O)n(-c2cncc(Cl)c2)c1=O [Compound I-362],< 10
5,N#CCn1c(N2CC(F)(c3ncccn3)C2)c(-c2ccc(F)c(Cl)c2)c(=O)n(-c2cncc(Cl)c2)c1=O [Compound I-287],< 10
6,N#CCn1c(N2CC3(CCOC3)C2)c(CCCC(F)(F)F)c(=O)n(-c2cncc(Cl)c2)c1=O [Compound I-365],10 to 100
7,N#CCn1c(N2CC3(CCOC3)C2)c(C2=CCCCC2)c(=O)n(-c2cncc(Cl)c2)c1=O [Compound I-264],< 10
8,"C[C@](O)(CCc1c(-c2ccc(F)c(Cl)c2)c(=O)n(-c2cncc(C#N)c2)c(=O)n1CC#N)C(F)F (single isomer, unassigned) [Compound I-429]",< 10
9,CC(C)N1CCN(c2c(-c3ccc(F)c(Cl)c3)c(=O)n(-c3cncc(Cl)c3)c(=O)n2CC#N)CC1=O [Compound I-223],< 10
10,Cc1cncc(-n2c(=O)c(-c3ccc(F)c(Cl)c3)c(NS(=O)(=O)c3ccccc3)n(CC#N)c2=O)c1 [Compound I-276],< 10
11,N#CCn1c(CC2(O)CCC2)c(-c2ccc(F)c(Cl)c2)c(=O)n(-c2cncc(Cl)c2)c1=O [Compound I-407],10 to 100
12,N#CCn1c(-c2ccc(CO)nc2)c(-c2ccc(F)c(Cl)c2)c(=O)n(-c2cncc(Cl)c2)c1=O [Compound I-380],< 10
13,COCc1c(-c2ccc(F)c(Cl)c2)c(=O)n(-c2cncc(Cl)c2)c(=O)n1CC#N [Compound I-435],10 to 100
14,N#CCn1c(N2CC3(C2)CC(F)(F)C3)c(-c2ccc(F)c(Cl)c2)c(=O)n(-c2cncc(C#N)c2)c1=O [Compound I-247],< 10
15,N#CCn1c(N2CC(O)(c3cnccn3)C2)c(-c2ccc(F)c(Cl)c2)c(=O)n(-c2cncc(Cl)c2)c1=O [Compound I-237],< 10
16,N#CCn1c(N2CC(OC(F)F)C2)c(-c2ccc(F)c(Cl)c2)c(=O)n(-c2cncc(C(F)F)n2)c1=O [Compound I-358],< 10
17,Cn1ccc(-c2c(-c3ccc(F)c(Cl)c3)c(=O)n(-c3cncc(Cl)c3)c(=O)n2CC#N)n1 [Compound I-302],< 10
18,N#CCn1c(N2CC(OC(F)F)C2)c(-c2ccc(F)c(Cl)c2)c(=O)n(-c2cncc(C(F)(F)F)n2)c1=O [Compound I-335],< 10
19,N#CCn1c(N2CC(CO)C2)c(-c2ccc(F)c(Cl)c2)c(=O)n(-c2cncc(OCF)n2)c1=O [Compound I-409],< 10
20,N#CCn1c(N2CC3(C2)CC(F)(F)C3)c(-c2ccc(F)c(C#N)c2)c(=O)n(-c2cncc(Cl)c2)c1=O [Compound I-372],< 10
21,CC1(O)CN(c2c(-c3ccc(F)c(Cl)c3)c(=O)n(-c3cncc(OCF)n3)c(=O)n2CC#N)C1 [Compound I-355],< 10
22,N#CCn1c(-c2ccc(F)nc2)c(-c2ccc(F)c(Cl)c2)c(=O)n(-c2cncc(Cl)c2)c1=O [Compound I-385],< 10
23,N#CCn1c(N2CC(O)(C(F)(F)F)C2)c(-c2ccc(F)c(F)c2)c(=O)n(-c2cncc(Cl)c2)c1=O [Compound I-317],< 10
24,N#CCn1c(N2CC(OC(F)F)C2)c(-c2ccc(F)c(Cl)c2)c(=O)n(-c2cncc(C#N)c2)c1=O [Compound I-437],< 10
25,N#CCn1c(N2CC(O)(c3ncccn3)C2)c(-c2ccc(F)c(Cl)c2)c(=O)n(-c2cncc(C(F)F)n2)c1=O [Compound I-336],< 10
26,Cc1cnnc(-n2c(=O)c(-c3ccc(F)c(Cl)c3)c(N3CC4(C3)CC(F)(F)C4)n(CC#N)c2=O)c1 [Compound I-228],< 10
